Experimental data from patent US9650339B2, “Inhibitors of histone demethylases” (Gilead Sciences, Inc., priority 2013, dated 2017).

Columns and labels:
KDM2B (FBXL10) = target: T1, KDM2B (FBXL10) (Homo sapiens, UniProt Q8NHM5); assay: Histone lysine demethylase AlphaLISA assay, KDM2B; assay type: biochemical; conditions: read-out: KDM2B HDME Inhibition IC50
T1 sequence (Q8NHM5 1-650): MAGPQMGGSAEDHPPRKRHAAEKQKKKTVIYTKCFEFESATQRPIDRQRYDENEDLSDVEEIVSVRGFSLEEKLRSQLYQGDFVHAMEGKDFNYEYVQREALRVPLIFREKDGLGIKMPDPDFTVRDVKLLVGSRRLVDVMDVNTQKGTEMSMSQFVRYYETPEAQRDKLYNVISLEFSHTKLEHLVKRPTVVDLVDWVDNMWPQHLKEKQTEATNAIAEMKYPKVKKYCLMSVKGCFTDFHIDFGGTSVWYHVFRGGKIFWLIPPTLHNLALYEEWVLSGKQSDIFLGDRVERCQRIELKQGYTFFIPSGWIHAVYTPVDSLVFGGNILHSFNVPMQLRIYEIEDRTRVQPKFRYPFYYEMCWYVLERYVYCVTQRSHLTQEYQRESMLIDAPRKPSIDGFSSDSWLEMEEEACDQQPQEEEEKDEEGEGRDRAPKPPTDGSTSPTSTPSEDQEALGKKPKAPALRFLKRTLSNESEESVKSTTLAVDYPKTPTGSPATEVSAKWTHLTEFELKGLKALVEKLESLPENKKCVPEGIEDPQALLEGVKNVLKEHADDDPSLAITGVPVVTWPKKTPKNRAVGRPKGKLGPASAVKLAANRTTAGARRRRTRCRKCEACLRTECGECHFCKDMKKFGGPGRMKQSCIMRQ
Summary of the method: (§1)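 Steps: enzyme equilibrated 10 min in buffer; compounds in 3% DMSO solution added, 10 min; substrate mix added (peptide, 25 μM L-Asc, 10 μM α-KG), room temperature; acceptor beads, then streptavidin donor beads, dark incubations; plate read.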

KDM4C (JMJD2C) = target: T2, KDM4C (JMJD2C) (Homo sapiens, UniProt Q9H3R0); assay: Histone lysine demethylase AlphaLISA assay, KDM4C; assay type: biochemical; conditions: read-out: KDM4C HDME Inhibition IC50
T2 sequence (Q9H3R0 1-349): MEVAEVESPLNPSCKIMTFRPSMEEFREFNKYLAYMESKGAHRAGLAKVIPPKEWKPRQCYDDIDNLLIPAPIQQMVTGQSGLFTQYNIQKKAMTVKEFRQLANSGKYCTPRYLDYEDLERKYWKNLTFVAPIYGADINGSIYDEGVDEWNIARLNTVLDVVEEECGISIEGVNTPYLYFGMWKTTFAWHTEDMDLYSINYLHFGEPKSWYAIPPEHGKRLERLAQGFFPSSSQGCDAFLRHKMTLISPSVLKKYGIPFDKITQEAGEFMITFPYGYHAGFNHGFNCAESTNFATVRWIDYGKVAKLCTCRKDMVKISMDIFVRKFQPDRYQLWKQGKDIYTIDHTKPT
Summary of the method: as §1

Structure (SMILES): O=C(CNCc1cc(/C=N/C2CC2)ccn1)N1CCC(Cc2ccccc2)CC1 [Compound 55, 1-(4-benzylpiperidin-1-yl)-2-[({4-[N-cyclopropyl-carboximidoyl]-pyridin-2-yl}methyl)amino]-ethan-1-one]
- IC50 (KDM2B (FBXL10)): > 2500 nM
- IC50 (KDM4C (JMJD2C)): 250 to 2500 nM

Structure (SMILES): C#CCN(C)C(=O)CNCc1cc(/C=N/C2CC2)ccn1 [Compound 56, 2-[({4-[N-cyclopropyl-carboximidoyl]-pyridin-2-yl}methyl)amino]-N-methyl-N-(prop-2-yn-1-yl)acetamide]
- IC50 (KDM2B (FBXL10)): > 2500 nM
- IC50 (KDM4C (JMJD2C)): > 2500 nM

Structure (SMILES): CCN(CC)C(=O)CNCc1cc(/C=N/CCC2CCCCC2)ccn1 [Compound 57, 2-[({4-[[(2-cyclohexylethyl)imino]-methyl]pyridin-2-yl}methyl)amino]-N,N-diethylacetamide]
- IC50 (KDM2B (FBXL10)): 250 to 2500 nM
- IC50 (KDM4C (JMJD2C)): 250 to 2500 nM

Structure (SMILES): CCCCCCCC/N=C/c1ccnc(CNCC(=O)N(CC)CC)c1 [Compound 58, N,N-diethyl-2-[({4-[(octylimino)methyl]-pyridin-2-yl}methyl)amino]-acetamide]
- IC50 (KDM2B (FBXL10)): 250 to 2500 nM
- IC50 (KDM4C (JMJD2C)): 250 to 2500 nM

Structure (SMILES): CCN(CC)CCCCNCc1cc(/C=N/CCOC)ccn1 [Compound 60, [4-(diethylamino)butyl]-({4-[[(2-methoxyethyl)imino]-methyl]pyridin-2-yl}methyl)amine]
- IC50 (KDM2B (FBXL10)): > 2500 nM
- IC50 (KDM4C (JMJD2C)): > 2500 nM

Structure (SMILES): CCN(CC)CCCCNCc1cc(/C=N/CCO)ccn1 [Compound 61, 2-[{[2-({[4-(diethylamino)-butyl]amino}-methyl)pyridin-4-yl]methylidene}-amino]ethan-1-ol]
- IC50 (KDM2B (FBXL10)): > 2500 nM
- IC50 (KDM4C (JMJD2C)): 250 to 2500 nM

Structure (SMILES): CCN(CC)CCCCNCc1cc(/C=N/CC(F)(F)C(F)(F)F)ccn1 [Compound 62, {[2-({[4-(diethylamino)-butyl]amino}methyl)pyridin-4-yl]methylidene} (2,2,3,3,3-pentafluoropropyl)-amine]
- IC50 (KDM2B (FBXL10)): > 2500 nM
- IC50 (KDM4C (JMJD2C)): > 2500 nM

Structure (SMILES): CCN(CCN(C)C)C(=O)CNCc1cc(/C=N/CCC2CCCCC2)ccn1 [Compound 63, 2-[({4-[[(2-cydohexylethyl)-imino]methyl]pyridin-2-yl}methyl)amino]-N-[2-(dimethylamino)-ethyl]-N-ethylacetamide]
- IC50 (KDM2B (FBXL10)): 250 to 2500 nM
- IC50 (KDM4C (JMJD2C)): < 250 nM

Structure (SMILES): CON=Cc1ccnc(CNCCCN(C)C)c1 [Compound 64, [3-(dimethylamino)-propyl]({4-[(methoxyimino)-methyl]pyridin-2-yl}methyl)amine]
- IC50 (KDM2B (FBXL10)): > 2500 nM
- IC50 (KDM4C (JMJD2C)): > 2500 nM

Structure (SMILES): CCN(CC)CCCCNCc1cc(C2NCCN2C)ccn1 (stereo not drawn) [Compound 65, [4-(diethylamino)-butyl]({[4-(1-methylimidazolidin-2-yl)pyridin-2-yl]methyl})amine]
- IC50 (KDM2B (FBXL10)): > 2500 nM
- IC50 (KDM4C (JMJD2C)): 250 to 2500 nM

Structure (SMILES): CCN(CCN(C)C)C(=O)CNCc1cc(/C=N/CCO)ccn1 [Compound 66]
- IC50 (KDM2B (FBXL10)): > 2500 nM
- IC50 (KDM4C (JMJD2C)): < 250 nM

Structure (SMILES): CCN(CC)CCCCNCc1cc(/C=N\CCC2CCCCC2)ccn1 [Compound 67, (2-cyclohexylethyl)-({[2-({[4-(diethylamino)-butyl]amino}methyl)pyridin-4-yl]methylidene})-amine]
- IC50 (KDM2B (FBXL10)): > 2500 nM
- IC50 (KDM4C (JMJD2C)): 250 to 2500 nM

Structure (SMILES): CCN(CCN(C)C)C(=O)CNCc1cc(C2OCC(Cc3ccccc3)CN2C(=O)C(F)(F)F)ccn1 (stereo not drawn) [Compound 90, 2-[({4-[5-benzyl-3-(trifluoroacetyl)-1,3-oxazinan-2-yl]pyridin-2-yl}methyl)amino]-N-[2-(dimethylamino)-ethyl]-N-ethylacetamide]
- IC50 (KDM2B (FBXL10)): > 2500 nM
- IC50 (KDM4C (JMJD2C)): 250 to 2500 nM

Structure (SMILES): CCN(CCN(C)C)C(=O)CNCc1cc(C2OCC3(CC3)CN2C(=O)C(F)(F)F)ccn1 (stereo not drawn) [Compound 91, N-[2--(dimethylamino)-ethyl]-N-ethyl-2-[({4-[7-(trifluoroacetyl)-5-oxa-7-azaspiro[2.5]-octan-6-yl]pyridin-2-yl}methyl)amino]-acetamide]
- IC50 (KDM2B (FBXL10)): > 2500 nM
- IC50 (KDM4C (JMJD2C)): 250 to 2500 nM

Structure (SMILES): CN(Cc1ccccc1F)C(=O)CNCc1cc(/C=N/CCO)ccn1 [Compound 92, N-[(2-fluorophenyl)methyl]-2-[({4-[[(2-hydroxyethyl)imino]-methyl]pyridin-2-yl}methyl)amino]-N-methylacetamide]
- IC50 (KDM2B (FBXL10)): > 2500 nM
- IC50 (KDM4C (JMJD2C)): > 2500 nM

Structure (SMILES): OCC/N=C/c1ccnc(CNCCc2ccccc2OCc2ccccc2)c1 [Compound 93, 2-[({2-[({2-[2-(benzyloxy)phenyl]-ethyl}amino)methyl]-pyridin-4-yl}methylidene)-amino]ethan-1-ol]
- IC50 (KDM2B (FBXL10)): > 2500 nM
- IC50 (KDM4C (JMJD2C)): > 2500 nM

Structure (SMILES): CCN(CCC#N)C(=O)CNCc1cc(/C=N/CCO)ccn1 [Compound 94, N-(2-cyanoethyl)-N-ethyl-2-[({4-[[(2-hydroxyethyl)imino]-methyl]pyridin-2-yl}methyl)amino]-acetamide]
- IC50 (KDM2B (FBXL10)): 250 to 2500 nM
- IC50 (KDM4C (JMJD2C)): 250 to 2500 nM

Structure (SMILES): CC(C)C[C@H](NCc1cc(/C=N/CCO)ccn1)C(=O)N1CCCCC1 [Compound 95, (2S)-2-[({4-[[(2-hydroxyethyl)imino]-methyl]pyridin-2-yl}methyl)amino]-4-methyl-1-(piperidin-1-yl)pentan-1-one]
- IC50 (KDM2B (FBXL10)): > 2500 nM
- IC50 (KDM4C (JMJD2C)): > 2500 nM

Structure (SMILES): CN(C)CC1CCC(CNCc2cc(C=O)ccn2)CC1 (stereo not drawn) [Compound 97, 2-{[({4-[(dimethylamino)-methyl]cyclohexyl}-methyl)amino]-methyl}pyridine-4-carbaldehyde]
- IC50 (KDM2B (FBXL10)): > 2500 nM
- IC50 (KDM4C (JMJD2C)): > 2500 nM

Structure (SMILES): CN(C)C/C=C/CNCc1cc(C=O)ccn1 [Compound 98, 2-({[(2E)-4-(dimethylamino)but-2-en-1-yl]amino}-methyl)pyridine-4-carbaldehyde]
- IC50 (KDM2B (FBXL10)): > 2500 nM
- IC50 (KDM4C (JMJD2C)): 250 to 2500 nM

Structure (SMILES): CN(C)C/C=C\CNCc1cc(C=O)ccn1 [Compound 99, 2-({[(2Z)-4-(dimethylamino)-but-2-en-1-yl]amino}methyl)-pyridine-4-carbaldehyde]
- IC50 (KDM2B (FBXL10)): > 2500 nM
- IC50 (KDM4C (JMJD2C)): > 2500 nM

Structure (SMILES): CN1CCC(CNCc2cc(C=O)ccn2)CC1 [Compound 100, 2-({[(1-methyl-piperidin-4-yl)methyl]amino}-methyl)pyridine-4-carbaldehyde]
- IC50 (KDM2B (FBXL10)): > 2500 nM
- IC50 (KDM4C (JMJD2C)): > 2500 nM

Structure (SMILES): CCN(CCN(C)C)C(=O)CNCc1cc(C=O)ccn1 [Compound 101]
- IC50 (KDM2B (FBXL10)): > 2500 nM
- IC50 (KDM4C (JMJD2C)): < 250 nM

Structure (SMILES): O=Cc1ccnc(CNCC(=O)N2CCC[C@@H]2CN2CCCC2)c1 [Compound 102, 2-[({2-oxo-2-[(2R)-2-(pyrrolidin-1-ylmethyl)pyrrolidin-1-yl]ethyl}amino)-methyl]pyridine-4-carbaldehyde]
- IC50 (KDM2B (FBXL10)): > 2500 nM
- IC50 (KDM4C (JMJD2C)): < 250 nM

Structure (SMILES): CN1CCN(C(=O)CNCc2cc(C=O)ccn2)CC1 [Compound 103, 2-({[2-(4-methylpiperazin-1-yl)-2-oxoethyl]-amino}methyl)-pyridine-4-carbaldehyde]
- IC50 (KDM2B (FBXL10)): > 2500 nM
- IC50 (KDM4C (JMJD2C)): > 2500 nM

Structure (SMILES): CCN1CCCC1CNC(=O)CNCc1cc(C=O)ccn1 (stereo not drawn) [Compound 104, N-[(1-ethylpyrrolidin-2-yl)methyl]-2-{[(4-formylpyridin-2-yl)methyl]amino}-acetamide]
- IC50 (KDM2B (FBXL10)): > 2500 nM
- IC50 (KDM4C (JMJD2C)): 250 to 2500 nM

Structure (SMILES): CCN(CC)C(=O)CNCc1cc(C=O)ccn1 [Compound 105, N,N-diethyl-2-{[(4-formylpyridin-2-yl)methyl]amino}-acetamide]
- IC50 (KDM2B (FBXL10)): > 2500 nM
- IC50 (KDM4C (JMJD2C)): > 2500 nM

Structure (SMILES): O=Cc1ccnc(CNCC(=O)N2CCC(Cc3ccccc3)CC2)c1 [Compound 106, 2-({[2-(4-benzylpiperidin-1-yl)-2-oxoethyl]-amino}methyl)-pyridine-4-carbaldehyde]
- IC50 (KDM2B (FBXL10)): > 2500 nM
- IC50 (KDM4C (JMJD2C)): 250 to 2500 nM

Structure (SMILES): CCN(CC)CCCCNCc1cc(C=O)ccn1 [Compound 107, 2-({[4-(diethylamino)-butyl]amino}-methyl)pyridine-4-carbaldehyde]
- IC50 (KDM2B (FBXL10)): > 2500 nM
- IC50 (KDM4C (JMJD2C)): > 2500 nM

Structure (SMILES): CN(C)CCCCNCc1cc(C=O)ccn1 [Compound 108, 2-({[4-(dimethylamino)-butyl]amino}methyl)-pyridine-4-carbaldehyde]
- IC50 (KDM2B (FBXL10)): > 2500 nM
- IC50 (KDM4C (JMJD2C)): > 2500 nM

Structure (SMILES): CN(C)CCNCc1cc(C=O)ccn1 [Compound 110, 2-({[2-(dimethylamino)-ethyl]amino}methyl)-pyridine-4-carbaldehyde]
- IC50 (KDM2B (FBXL10)): > 2500 nM
- IC50 (KDM4C (JMJD2C)): > 2500 nM

Structure (SMILES): O=Cc1ccnc(CNCCCN2CCCC2)c1 [Compound 111, 2-({[3-(pyrrolidin-1-yl)propyl]amino}-methyl)pyridine-4-carbaldehyde]
- IC50 (KDM2B (FBXL10)): > 2500 nM
- IC50 (KDM4C (JMJD2C)): > 2500 nM

Structure (SMILES): CCN(CC)CCCCNC(=O)CNCc1cc(C=O)ccn1 [Compound 112, N-[4-(diethylamino)-butyl]-2-{[(4-formylpyridin-2-yl)methyl]amino}-acetamide]
- IC50 (KDM2B (FBXL10)): > 2500 nM
- IC50 (KDM4C (JMJD2C)): 250 to 2500 nM
